Patent US6355799B1, “Substituted benzene compounds, process for their preparation, and herbicidal and defoliant compositions containing them” (ISK Americas Incorporated, priority 1997, dated 2002)

Key:
Format in all cases: in vivo
[1] = tested on: sicklepod (Cassia obtusifolia, CASOB); assay: Pre-emerge test, greenhouse herbicide activity screening; conditions: phytotoxicity rating 0-100, 14 days after application
Text: (§1) A standard greenhouse herbicide activity screening system was used to evaluate the herbicidal efficacy and crop safety of these test compounds. Seven broadleaf weed species including redroot pigweed (Amaranthus retroflexus, AMARE, velvetleaf (Abutilon theophrasti, ABUTH), sicklepod (Cassia obtusifolia, CASOB), ivyleaf morningglory (Ipomoea hederacea, IPOHE), lambsquarters (Chenopodium album, CHEAL), common ragweed (Ambrosia artemisizfolia L., AMBEL), and cocklebur (Xanthium strumarium, XANST) were used as test species. Four grass weed species including green foxtail (Setaria viridis, SETVI), barnyardgrass (Echinochloa crus-galli, ECHCG), johnsongrass (Sorghum halepense, SORHA), and large crabgrass (Digitaria sanguinalis, DIGSA) were also used. In addition, three crop species, field corn (Zea mays L., var. Dekalb 535, CORN), soybean (Glycine max L., var. Pella 86, SOY), and is upland rice (Oryza sp., var. Tebonnet, RICE) were included.
(§2) All plants were grown in 10 cm square plastic pots which were filled with a sandy loam soil mix. For pre-emerge tests, seeds were planted one day prior to application of the test compounds. For post-emerge tests, seeds were planted 8-21 days prior to the test to allow emergence and good foliage development prior to application of the test substances. At the time of the post-emerge application, plants of all species were usually at the 2-3 leaf stage of development.
(§3) All test compounds Were dissolved in acetone and applied to the test units in a volume of 187 l /ha. Test materials were applied at rates ranging from 15 g ai/ha to 1000 g ai/ha using a track sprayer equipped with a TJ8001E even flow flat fan spray nozzle. Plants were arranged on a shelf so that the top of the canopy (post-emerge) or top of the soil surface (pre-emerge) was 40-45 cm below the nozzle. Pressurized air was used to force the test solution through the nozzle as it was mechanically advanced (via electrically driven chain drive) over the top of all test plants/pots. This application simulates a typical commercial field herbicide application.
(§4) In the post-emerge test, a commercial non-ionic surfactant was also included (0.25% v/v) to enhance wetting of the leaf surfaces of target plants. Immediately after application, test units of the pre-emerge applications were watered at the soil surface to incorporate the test materials. Subsequently, these test units were bottom-watered. Post-emerge test units were always bottom-watered.
(§5) At 14 days after application of the test materials, phytotoxicity ratings were recorded. A rating scale of 0-100 was used as previously described in Research Methods in Weed Science, 2nd edition, B. Truelove, Ed., Southern Weed Science Society, Auburn University, Auburn, Ala. 1977. Briefly, “0” corresponds to no damage and “100” corresponds to complete death of all plants in the test unit. This scale was used both to determine efficacy against weed species and damage to crop species. Herbicide activity data for various compounds of this invention, which are shown by compound No. in Tables 1-8, are shown in Tables 11 and 12.

[2] = tested on: velvetleaf (Abutilon theophrasti, ABUTH); assay: as above; conditions: phytotoxicity rating 0-100, 14 days after application
Text: as §1, §2, §3, §4, §5

[3] = tested on: lambsquarters (Chenopodium album, CHEAL); assay: as above; conditions: phytotoxicity rating 0-100, 14 days after application
Text: as §1, §2, §3, §4, §5

[4] = tested on: ivyleaf morningglory (Ipomoea hederacea, IPOHE); assay: as above; conditions: phytotoxicity rating 0-100, 14 days after application
Text: as §1, §2, §3, §4, §5

[5] = tested on: green foxtail (Setaria viridis, SETVI); assay: as above; conditions: phytotoxicity rating 0-100, 14 days after application
Text: as §1, §2, §3, §4, §5

[6] = tested on: large crabgrass (Digitaria sanguinalis, DIGSA); assay: as above; conditions: phytotoxicity rating 0-100, 14 days after application
Text: as §1, §2, §3, §4, §5

[7] = tested on: barnyardgrass (Echinochloa crus-galli, ECHCG); assay: as above; conditions: phytotoxicity rating 0-100, 14 days after application
Text: as §1, §2, §3, §4, §5

[8] = tested on: redroot pigweed (Amaranthus retroflexus, AMARE); assay: Post-emerge test, greenhouse herbicide activity screening; conditions: post-emerge, 14 days after application
Text: as §1, §2, §3, §4, §5

[9] = tested on: sicklepod (Cassia obtusifolia, CASOB); assay: as above; conditions: post-emerge, 14 days after application, rating scale 0-100
Text: as §1, §2, §3, §4, §5

[10] = tested on: velvetleaf (Abutilon theophrasti, ABUTH); assay: as above; conditions: post-emerge, 14 days after application, rating scale 0-100
Text: as §1, §2, §3, §4, §5

[11] = tested on: lambsquarters (Chenopodium album, CHEAL); assay: as above; conditions: post-emerge, 14 days after application, rating scale 0-100
Text: as §1, §2, §3, §4, §5

[12] = tested on: ivyleaf morningglory (Ipomoea hederacea, IPOHE); assay: as above; conditions: post-emerge, 14 days after application, rating scale 0-100
Text: as §1, §2, §3, §4, §5

[13] = tested on: green foxtail (Setaria viridis, SETVI); assay: as above; conditions: post-emerge, 14 days after application, rating scale 0-100
Text: as §1, §2, §3, §4, §5

[14] = tested on: large crabgrass (Digitaria sanguinalis, DIGSA); assay: as above; conditions: post-emerge, 14 days after application, rating scale 0-100
Text: as §1, §2, §3, §4, §5

[15] = tested on: barnyardgrass (Echinochloa crus-galli, ECHCG); assay: as above; conditions: post-emerge, 14 days after application, rating scale 0-100
Text: as §1, §2, §3, §4, §5

[16] = tested on: field corn (Zea mays L., var. Dekalb 535, CORN); assay: Pre-emerge test, crop safety; conditions: crop damage rating 0-100, 14 days after application
Outline: (§6)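 Compounds in acetone were track-sprayed at 187 l/ha, 15–1000 g ai/ha, onto sandy loam pots. Pre-emerge seeds were sown one day before spraying, with surface watering afterwards. Post-emerge plants were at the 2–3 leaf stage and sprayed with 0.25% v/v non-ionic surfactant. Injury was rated 0–100 at 14 days.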

[17] = tested on: upland rice (Oryza sp., var. Tebonnet, RICE); assay: Pre-emerge test, crop safety; conditions: crop damage rating 0-100, 14 days after application
Outline: as §6

[18] = tested on: field corn (Zea mays L., var. Dekalb 535, CORN); assay: Post-emerge test, crop safety; conditions: post-emerge, 14 days after application, rating scale 0-100
Outline: (§7)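 Plants grown in 10 cm pots of sandy loam mix received acetone-dissolved compounds through a moving flat-fan nozzle. Doses ranged from 15 to 1000 g ai/ha. Pre-emerge pots were seeded one day earlier, post-emerge pots 8–21 days earlier. Fourteen days on, each pot was graded 0–100 for damage.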

[19] = tested on: upland rice (Oryza sp., var. Tebonnet, RICE); assay: Post-emerge test, crop safety; conditions: post-emerge, 14 days after application, rating scale 0-100
Outline: as §7

[20] = tested on: redroot pigweed (Amaranthus retroflexus, AMARE); assay: Pre-emerge test, greenhouse herbicide activity screening; conditions: phytotoxicity rating 0-100, 14 days after application
Outline: as §7

With COc1c(Cl)cc(F)c(-n2c(=O)cc(C(F)(F)F)n(C)c2=O)c1NC(=O)OCc1ccc2c(c1)OCO2 [4-41] the “Pre-emerge Herbicidal Activity CASOB” value ([1]; 63 g ai/ha) was 100, the “Pre-emerge Herbicidal Activity CASOB” value ([1]; 250 g ai/ha) was 100 and the “Pre-emerge Herbicidal Activity ABUTH” value ([2]; 63 g ai/ha) was 100. For the same molecule, the “Pre-emerge Herbicidal Activity ABUTH” value ([2]; 250 g ai/ha) was 100, the “Pre-emerge Herbicidal Activity CHEAL” value ([3]; 63 g ai/ha) was 100 and the “Pre-emerge Herbicidal Activity CHEAL” value ([3]; 250 g ai/ha) was 100. The “Pre-emerge Herbicidal Activity IPOHE” value ([4]; 63 g ai/ha) was 100, the “Pre-emerge Herbicidal Activity IPOHE” value ([4]; 250 g ai/ha) was 100 and the “Pre-emerge Herbicidal Activity SETVI” value ([5]; 63 g ai/ha) was 100. The “Pre-emerge Herbicidal Activity SETVI” value ([5]; 250 g ai/ha) was 100, the “Pre-emerge Herbicidal Activity DIGSA” value ([6]; 63 g ai/ha) was 100 and the “Pre-emerge Herbicidal Activity DIGSA” value ([6]; 250 g ai/ha) was 100. The “Pre-emerge Herbicidal Activity ECHCG” value ([7]; 63 g ai/ha) was 80, the “Pre-emerge Herbicidal Activity ECHCG” value ([7]; 250 g ai/ha) was 90 and the “phytotoxicity rating AMARE” value ([8]; 63 g ai/ha, rating scale 0-100 (0 no damage, 100 complete death)) was 100. For the same molecule, the “phytotoxicity rating AMARE” value ([8]; 250 g ai/ha, rating scale 0-100) was 100, the “phytotoxicity rating CASOB” value ([9]; 63 g ai/ha) was 100 and the “phytotoxicity rating CASOB” value ([9]; 250 g ai/ha) was 100. The “phytotoxicity rating ABUTH” value ([10]; 63 g ai/ha) was 100, the “phytotoxicity rating ABUTH” value ([10]; 250 g ai/ha) was 100 and the “phytotoxicity rating CHEAL” value ([11]; 63 g ai/ha) was 100. For the same molecule, the “phytotoxicity rating CHEAL” value ([11]; 250 g ai/ha) was 100, the “phytotoxicity rating IPOHE” value ([12]; 63 g ai/ha) was 100 and the “phytotoxicity rating IPOHE” value ([12]; 250 g ai/ha) was 100. For the same molecule, the “phytotoxicity rating SETVI” value ([13]; 63 g ai/ha) was 95, the “phytotoxicity rating SETVI” value ([13]; 250 g ai/ha) was 95 and the “phytotoxicity rating DIGSA” value ([14]; 63 g ai/ha) was 90. The “phytotoxicity rating DIGSA” value ([14]; 250 g ai/ha) was 100, the “phytotoxicity rating ECHCG” value ([15]; 63 g ai/ha) was 80 and the “phytotoxicity rating ECHCG” value ([15]; 250 g ai/ha) was 90. For the same molecule, the “Pre-emerge Herbicidal Activity CORN” value ([16]; 63 g ai/ha) was 15, the “Pre-emerge Herbicidal Activity CORN” value ([16]; 250 g ai/ha) was 65 and the “Pre-emerge Herbicidal Activity RICE” value ([17]; 63 g ai/ha) was 40. The “Pre-emerge Herbicidal Activity RICE” value ([17]; 250 g ai/ha) was 80, the “phytotoxicity rating CORN (crop damage)” value ([18]; 63 g ai/ha) was 75 and the “phytotoxicity rating CORN (crop damage)” value ([18]; 250 g ai/ha) was 90. For the same molecule, the “phytotoxicity rating RICE (crop damage)” value ([19]; 63 g ai/ha) was 50, the “phytotoxicity rating RICE (crop damage)” value ([19]; 250 g ai/ha) was 85 and the “Pre-emerge Herbicidal Activity AMARE” value ([20]; 63 g ai/ha) was 100. For the same molecule, the “Pre-emerge Herbicidal Activity AMARE” value ([20]; 250 g ai/ha) was 100.
